Results published in patent publication US20200276334A1, “New Therapy for Pompe Disease” (Erasmus University Medical Center Rotterdam, priority 2017, published 2020).
Read-outs that look alike come from different tables or passages of the source.

Legend:
[1] = system: pluripotent stem cells; details: cited from earlier work
[2] = system: iPSC lines used in this study; assay: CHIR99021 optimisation for differentiation of iPSCs into myogenic progenitor cells; assay type: cell-based, human
Description: (§1) A confluent iPSC culture in a 35 mm dish was incubated for 5 minutes at 37° C. with 2 mg/ml collagenase IV in DMEM/F12, cut into pieces with a 23 gauge needle, detached with a cell scraper and split into a 10 cm dish with a confluency of 40%. After 5 days, differentiation into myogenic progenitor cells (MPCs) was started with myogenic differentiation medium (DMEM/F12, 1% Insulin-Transferrin-Selenium-Ethanolamine, 1% penicillin/streptomycin/L-glutamine) supplemented with 3.5 μM CHIR99021 for 5 days and changed to myogenic differentiation medium supplemented with 20 ng/ml FGF2 (Peprotech. London. UK) for 14 days. The last 16 days, cells were cultured in myogenic differentiation medium only. For FACS purification cells were detached with TrypLE and stained on ice with anti-C-MET-APC (1:50, R&D systems, Minneapolis Minn.) and anti-HNK-1-FITC (1:100, Aviv Systems Biology, San Diego. Calif.) antibodies. Prior to FACS, Hoechst (33258, Life Technologies, Carlsbad, Calif.) was added to stain live cells. The c-MET^+/Hoechst^+/Hnk-1^− fraction was sorted in MPC proliferation medium (DMEM high glucose supplemented with 10% fetal bovine serum, 1% penicillin/streptomycin/L-glutamine and 100 ng/ml FGF2) supplemented with 1× Revitacell supplement (Gibco, Waltham. Mass.). For slightly positive cultures, MPCs were sorted with a maximum sorting time of 20 minutes and pooled into a single well until amount of 20.000 for 96 well, 40.000 for 48 well or 80.000 for 24 well was reached. After 24 hours. MPCs were expanded in MPC proliferation medium or cryopreserved. Further details are described previously (van der Wal et al., 2017).
The first step of the differentiation procedure from iPSCs into MPCs is the stimulation of the Wnt pathway with CHIR99021. In a previous study on which the current protocol was based. […] In order to define the optimal concentration of CHIR99021 we generated single cells from iPSCs, and incubated these with 10 μM CHIR99021 for 2 days, followed by the differentiation procedure highlighted in FIG. 5. […]

[3] = system: Control 2 iPSCs; assay: Optimization of CHIR99021 concentration, Control 2 iPSC colonies (confluency, Pax7 staining); assay type: cell-based, human
Description: as §1
(§2) Differentiated cells were fixed by adding 1 volume of 4% paraformaldehyde (PFA) (Merck, Kenilworth, N.J.) in PBS to the medium. PFA was incubated for 10 minutes at room temperature and afterwards replaced by PBS. Fixed cells were either stored at 4° C. or directly stained. For staining, cells were permeabilized for 5 minutes with 0.1% Triton X-100 (AppliChem, Darmstadt, Germany) in PBS and blocked for 30 minutes at room temperature in blocking solution (PBS-T (0.1% Tween. Sigma Aldrich, Irvine. UK) with 3% BSA (Sigma Aldrich. Irvine, UK)). Primary antibodies (Table 5) were incubated 1 hour at room temperature and diluted into 0.1% BSA in PBS-T. The unbound first antibody was removed by washing three times for 5 minutes with PBS-T. Secondary antibodies (1:500, Alexa-Fluor-594-α-goat, Alexa-Fluor-488-α-mouse, Alexa-Fluor-594-α-rabbit, Alexa-Fluor-488-α-rabbit, Invitrogen, Carlsbad, Calif. or horse anti-mouse biotin, Vector Laboratories, Burlingame, Calif.) were incubated for 30 minutes at room temperature in PBS-T. When a secondary biotinylated antibody was used cells were washed three times for 5 minutes with PBS-T and incubated with Streptavidine 594 (1:500. Invitrogen, Carlsbad. Calif.,). The cells were subsequently washed two times for 5 minutes with PBS and incubated for 15 minutes with Hoechst (1:15000. Thermo Scientific, Waltham, Mass.). Cells were imaged in PBS.
(§3) The first step of the differentiation procedure from iPSCs into MPCs is the stimulation of the Wnt pathway with CHIR99021. In a previous study on which the current protocol was based. […] In order to define the optimal concentration of CHIR99021 we generated single cells from iPSCs, and incubated these with 10 μM CHIR99021 for 2 days, followed by the differentiation procedure highlighted in FIG. 5. […] Generating single iPSCs in feeder-based culture systems causes massive apoptosis and addition of Rock inhibitor is required (Watanabe et al., 2007). To keep the differentiation protocol applicable for feeder-dependent and feeder-free cultures we decided to further optimize the concentration of CHIR99021 on plated iPSC colonies with a range from 3 to 5 μM CHIR99021, with incubation for 4, 5, 8 or 10 days. […] To avoid toxicity, we used a concentration of 3.5 μM CHIR99021 in our final differentiation protocol.

[4] = system: Control 1 iPSCs; assay: Optimization of CHIR99021 concentration, Control 1 iPSC colonies (confluency, Pax7 staining); assay type: cell-based, human
Description: as §1, §2, §3

[5] = cited from earlier work

In the case of `Cc1cnc(-c2cnc(NCCNc3ccc(C#N)cn3)nc2-c2ccc(Cl)cc2Cl)[nH]1` [CHIR99021, 6-[2-[[4-(2,4-dichlorophenyl)-5-(5-methyl-1H-imidazol-2-yl)pyrimidin-2-yl]amino]ethylamino]pyridine-3-carbonitrile], the “induction of paraxial mesoderm” value ([1]; 10 μM CHIR99021 incubated for 2 days, Shelton et al., 2014) is listed as “better induction of paraxial mesoderm”, the “concentration at which toxicity was described” value ([1]; Borchin et al., 2013) is listed as “higher than 3 μM” and the “Pax7 staining, amount of Pax7-positive areas in the culture” value ([2]; control 1 and control 2 iPSCs, 4 μM CHIR99021 for 5 days, range tested 3 to 5 μM for 4, 5, 8 or 10 days) is listed as “highest amount of Pax7-positive areas”. The “concentration resulting in higher toxicity levels and more variable response among iPSC lines” value ([2]; plated iPSC colonies) was over 4 µM, the “Pax7 positive cells after 40 days of differentiation” value ([2]; single cells from iPSCs, 10 μM CHIR99021 for 2 days) was “Pax7 positive cells were observed” and the Confluency ([3]; 3 μM CHIR99021, 4 days) was 95%. It also gave a Confluency ([3]; 3 μM CHIR99021, 5 days) of 100%, a Confluency ([3]; 3 μM CHIR99021, 8 days) of 90% and a Confluency ([3]; 3 μM CHIR99021, 10 days) of 95%. The Confluency ([3]; 4 μM CHIR99021, 4 days) was 95%, the “Pax7+” value ([3]; 4 μM CHIR99021, 4 days) was “+ +” and the Confluency ([3]; 4 μM CHIR99021, 5 days) was 95%. For the same compound, the “Pax7+” value ([3]; 4 μM CHIR99021, 5 days) was “+ +”, the Confluency ([3]; 4 μM CHIR99021, 8 days) was 95% and the “Pax7+” value ([3]; 4 μM CHIR99021, 8 days) was “+ +”. It also gave a Confluency ([3]; 4 μM CHIR99021, 10 days) of 85%, a Confluency ([3]; 5 μM CHIR99021, 4 days) of 95% and a Confluency ([3]; 5 μM CHIR99021, 5 days) of 95%. For the same compound, the “Pax7+” value ([3]; 5 μM CHIR99021, 5 days) was “+ +”, the Confluency ([3]; 5 μM CHIR99021, 8 days) was 50% and the Confluency ([3]; 5 μM CHIR99021, 10 days) was 30%. The Confluency ([4]; 3 μM CHIR99021, 4 days) was 65%, the “Pax7+” value ([4]; 3 μM CHIR99021, 4 days) was “+ +” and the Confluency ([4]; 3 μM CHIR99021, 5 days) was 50%. The Confluency ([4]; 3 μM CHIR99021, 8 days) was 40%, the Confluency ([4]; 3 μM CHIR99021, 10 days) was 40% and the Confluency ([4]; 4 μM CHIR99021, 4 days) was 85%. The “Pax7+” value ([4]; 4 μM CHIR99021, 4 days) was “+ + +”, the Confluency ([4]; 4 μM CHIR99021, 5 days) was 100% and the “Pax7+” value ([4]; 4 μM CHIR99021, 5 days) was “+ + +”. For the same compound, the Confluency ([4]; 4 μM CHIR99021, 8 days) was 75%, the Confluency ([4]; 4 μM CHIR99021, 10 days) was 50% and the “Pax7+” value ([4]; 4 μM CHIR99021, 10 days) was “+ +”. The Confluency ([4]; 5 μM CHIR99021, 4 days) was 60%, the “Pax7+” value ([4]; 5 μM CHIR99021, 4 days) was “+ +” and the Confluency ([4]; 5 μM CHIR99021, 5 days) was 70%. The “Pax7+” value ([4]; 5 μM CHIR99021, 5 days) was “+ + +”, the Confluency ([4]; 5 μM CHIR99021, 8 days) was 0% and the Confluency ([4]; 5 μM CHIR99021, 10 days) was 0%.
In the case of “recombinant human GAA: recombinant human acid α-glucosidase used for enzyme replacement therapy”, the half life ([5]; in blood) is listed as 2 to 3 h and the half life ([5]; in cells) is listed as “several days”.
